The results in this text go back to patent publication US9796711B2, “Substituted pyrazolo[3,4-b]pyridin-6-carboxylic acids and method of use” (AbbVie S.àr.l., priority 2015, dated 2017).

Structures are written as SMILES. Bounds are passed on as bounds.

The target in test [1] is T1, ΔF508-CFTR (Homo sapiens, UniProt P13569, DEL508-508).
T1 construct: host or cells: CFBE41o-, doxycycline-inducible
The test is described as follows: CFTR cell surface levels using HRP-tagged ΔF508-CFTR expressing CFBE cells, intrinsic corrector capacity. The class given is cell-based. The gist of the method:
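Here the cells express ΔF508-CFTR with horseradish peroxidase inserted in extracellular loop 4, so only rescued channel at the surface gives luminescent signal. Compounds act on their own, 20 h at the reduced temperature of 33 °C; values are percent activity relative to DMSO and a 3 μM corrector.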

In test [2] the target is T1, ΔF508-CFTR. As to the kind of experiment: CFTR cell surface levels using HRP-tagged ΔF508-CFTR expressing CFBE cells, in the presence of a co-corrector. The class given is cell-based. The gist of the method:
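Cells were seeded with 0.5 μg/mL doxycycline and held 68 h at 37 °C. Test compounds plus 3 μM co-corrector (final 0.1% DMSO) were then added for 20 h at 33 °C. Washed cells received HRP substrate, and luminescence was normalized between DMSO and 3 μM co-corrector controls.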

The mark [3] stands for this setting: HRP-tagged ΔF508-CFTR CFBE41o- cells, compounds alone (intrinsic corrector capacity), 20 hours at 33° C., positive control 3 μM corrector.
Setting [4] is: HRP-tagged ΔF508-CFTR CFBE41o- cells, compounds alone (intrinsic corrector capacity), 20 hours at 33° C., read-out: EC50.
The mark [5] stands for this setting: HRP-tagged ΔF508-CFTR expressing CFBE cells, in the presence of 3 μM co-corrector.
[6] abbreviates: HRP-tagged ΔF508-CFTR expressing CFBE cells, in the presence of 3 μM co-corrector, read-out: EC50.
Where [7] appears, read: HRP-tagged ΔF508-CFTR expressing CFBE cells, intrinsic corrector capacity (no co-corrector), 33° C., 20 hours.
The mark [8] stands for this setting: HRP-tagged ΔF508-CFTR expressing CFBE cells, intrinsic corrector capacity (no co-corrector), 33° C., 20 hours, read-out: EC50.

T1 sequence (P13569 with tags, fused parts or gaps DEL508-508): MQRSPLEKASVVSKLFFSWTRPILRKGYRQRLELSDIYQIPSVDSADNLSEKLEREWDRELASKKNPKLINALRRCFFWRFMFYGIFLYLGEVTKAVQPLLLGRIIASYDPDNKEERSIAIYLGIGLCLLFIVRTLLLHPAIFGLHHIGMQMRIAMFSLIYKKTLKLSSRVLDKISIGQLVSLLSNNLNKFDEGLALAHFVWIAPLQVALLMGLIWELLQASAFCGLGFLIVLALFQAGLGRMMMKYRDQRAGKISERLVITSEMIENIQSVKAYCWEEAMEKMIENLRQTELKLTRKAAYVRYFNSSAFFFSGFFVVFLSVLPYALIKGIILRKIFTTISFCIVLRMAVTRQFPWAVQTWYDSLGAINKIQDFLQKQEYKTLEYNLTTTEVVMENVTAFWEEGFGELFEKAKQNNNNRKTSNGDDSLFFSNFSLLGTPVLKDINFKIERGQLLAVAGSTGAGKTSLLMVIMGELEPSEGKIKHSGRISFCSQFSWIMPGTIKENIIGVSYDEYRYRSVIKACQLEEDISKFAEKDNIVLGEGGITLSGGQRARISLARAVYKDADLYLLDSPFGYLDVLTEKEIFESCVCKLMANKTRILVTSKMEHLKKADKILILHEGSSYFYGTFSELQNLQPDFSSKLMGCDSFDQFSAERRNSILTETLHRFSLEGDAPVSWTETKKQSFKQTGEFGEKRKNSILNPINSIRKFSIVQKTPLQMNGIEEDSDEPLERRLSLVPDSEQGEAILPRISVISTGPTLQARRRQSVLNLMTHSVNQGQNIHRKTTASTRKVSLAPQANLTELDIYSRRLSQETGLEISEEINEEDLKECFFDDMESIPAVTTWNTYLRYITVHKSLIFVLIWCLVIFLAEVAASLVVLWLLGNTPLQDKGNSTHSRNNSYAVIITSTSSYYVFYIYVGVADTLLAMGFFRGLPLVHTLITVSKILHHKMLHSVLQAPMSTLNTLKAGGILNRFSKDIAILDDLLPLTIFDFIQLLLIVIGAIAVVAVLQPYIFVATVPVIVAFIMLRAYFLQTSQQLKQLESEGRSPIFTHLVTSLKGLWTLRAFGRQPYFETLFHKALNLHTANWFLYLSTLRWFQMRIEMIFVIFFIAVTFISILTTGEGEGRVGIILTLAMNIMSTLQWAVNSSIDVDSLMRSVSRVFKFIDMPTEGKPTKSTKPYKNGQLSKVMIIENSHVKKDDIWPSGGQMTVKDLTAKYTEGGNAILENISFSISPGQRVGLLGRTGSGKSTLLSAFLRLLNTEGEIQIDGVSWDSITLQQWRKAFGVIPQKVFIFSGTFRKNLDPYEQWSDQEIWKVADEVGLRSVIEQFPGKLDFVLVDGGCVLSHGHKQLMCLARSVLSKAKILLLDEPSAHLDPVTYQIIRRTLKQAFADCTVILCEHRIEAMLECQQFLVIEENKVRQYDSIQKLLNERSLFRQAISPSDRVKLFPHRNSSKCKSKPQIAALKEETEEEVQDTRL

Consider `Cc1cccc(-n2nc(C(C)C)c3c(-c4ccc(N5CCC(C#N)CC5)nc4)cc(C(=O)O)nc32)c1` [compound 175, 4-[6-(4-cyanopiperidin-1-yl)pyridin-3-yl]-1-(3-methylphenyl)-3-(propan-2-yl)-1H-pyrazolo[3,4-b]pyridine-6-carboxylic acid], for which the “% Activation” value on ΔF508-CFTR [1] (setting [3]) was found to be 321.67%; at ΔF508-CFTR [2] (setting [5]), 522.6%. The values for the EC50 on ΔF508-CFTR [1] (setting [4]) and at ΔF508-CFTR [2] (setting [6]) were 809 nM and 532 nM, respectively.

Regarding `COC1CN(C2CCN(c3cc(C(=O)O)nc4c3c(C3CCC3)nn4-c3ccc(F)cc3)CC2)C1` [compound 873, 3-cyclobutyl-1-(4-fluorophenyl)-4-[4-(3-methoxyazetidin-1-yl)piperidin-1-yl]-1H-pyrazolo[3,4-b]pyridine-6-carboxylic acid], the “% Activation” value stood at 139.8% at ΔF508-CFTR [1] (setting [7]) and 332.45% on ΔF508-CFTR [2] (setting [5]). The EC50 came out at 3340 nM on ΔF508-CFTR [1] (setting [8]) and 1850 nM at ΔF508-CFTR [2] (setting [6]).

Take `CC(C)c1nn(-c2ccc(F)cc2)c2nc(C(=O)O)cc(N3CCC(CN4CCCC4)CC3)c12` [compound 811, 1-(4-fluorophenyl)-3-(propan-2-yl)-4-{4-[(pyrrolidin-1-yl)methyl]piperidin-1-yl}-1H-pyrazolo[3,4-b]pyridine-6-carboxylic acid]: the results for the EC50 at ΔF508-CFTR [1] and on ΔF508-CFTR [2] were 890 nM and 1080 nM, respectively. Further, the “% Activation” value turned out to be 120.4% at ΔF508-CFTR [1] (setting [7]) and 408.4% on ΔF508-CFTR [2] (setting [5]).

On to `COCCCN1CCN(c2cc(C(=O)O)nc3c2c(C(C)C)nn3-c2ccc(F)cc2)CC1` [compound 776, 1-(4-fluorophenyl)-4-[4-(3-methoxypropyl)piperazin-1-yl]-3-(propan-2-yl)-1H-pyrazolo[3,4-b]pyridine-6-carboxylic acid], for which the “% Activation” value on ΔF508-CFTR [1] (setting [7]) was 113.2%; on ΔF508-CFTR [2] (setting [5]), 261.4%. Also, the EC50 at ΔF508-CFTR [1] (setting [8]) amounted to 1670 nM; at ΔF508-CFTR [2] (setting [6]), 531 nM.

With `CC(C)c1nn(-c2cccc(N3CC(C)(C)C3)c2)c2nc(C(=O)O)cc(-c3ccc(N4CCOCC4)cc3)c12` [compound 160, 1-[3-(3,3-dimethylazetidin-1-yl)phenyl]-4-[4-(morpholin-4-yl)phenyl]-3-(propan-2-yl)-1H-pyrazolo[3,4-b]pyridine-6-carboxylic acid], the results for the “% Activation” value on ΔF508-CFTR [1] (setting [3]) and at ΔF508-CFTR [2] (setting [5]) were 318.83% and 544.87%, respectively. Also, the EC50 at ΔF508-CFTR [1] (setting [4]) came to 447 nM; at ΔF508-CFTR [2] (setting [6]) it was 329 nM.

As to `N#CC1CCN(c2ccc(-c3cc(C(=O)O)nc4c3c([C@H]3C[C@H](F)C3)nn4-c3ccccc3)cn2)CC1` [compound 433, 4-[6-(4-cyanopiperidin-1-yl)pyridin-3-yl]-3-(trans-3-fluorocyclobutyl)-1-phenyl-1H-pyrazolo[3,4-b]pyridine-6-carboxylic acid], the “% Activation” value on ΔF508-CFTR [1] (setting [7]) is 185.45%; at ΔF508-CFTR [2] (setting [5]), 369.1%. The EC50 at ΔF508-CFTR [1] (setting [8]) stood at 629 nM; on ΔF508-CFTR [2] (setting [6]) it was 367 nM.

`CC(C)c1nn(C2CCN(CC#N)CC2)c2nc(C(=O)O)cc(-c3ccc(N4CCOCC4)cc3)c12` [compound 95, 1-[1-(cyanomethyl)piperidin-4-yl]-4-[4-(morpholin-4-yl)phenyl]-3-(propan-2-yl)-1H-pyrazolo[3,4-b]pyridine-6-carboxylic acid]: the “% Activation” value was 16.66% on ΔF508-CFTR [1] (setting [3]) and 145.4% on ΔF508-CFTR [2] (setting [5]). In addition, the EC50 at ΔF508-CFTR [1] (setting [4]) was over 10000 nM; on ΔF508-CFTR [2] (setting [6]), 3340 nM.

In the case of `O=C(O)c1cc(N2CC(N3CCOC3=O)C2)c2c(C3CCC3)nn(-c3ccccc3)c2n1` [compound 529, 3-cyclobutyl-4-[3-(2-oxo-1,3-oxazolidin-3-yl)azetidin-1-yl]-1-phenyl-1H-pyrazolo[3,4-b]pyridine-6-carboxylic acid], the “% Activation” value stood at 5.039% on ΔF508-CFTR [1] (setting [7]) and 126.7% on ΔF508-CFTR [2] (setting [5]). The EC50 at ΔF508-CFTR [1] (setting [8]) and on ΔF508-CFTR [2] (setting [6]) was over 10000 nM in each case.

By EC50 is commonly meant the concentration at which the effect is half-maximal.
